Where two headings read alike, the source gives them in different places. Where a SMILES comes first, the peptide text is derived from it. [ ]: non-standard residue; d: D form. The star is where a group is joined. Nle = CCCC[CH](N)C(=O)O; Cbz = O=C(OCc1ccccc1)*
Experiments:
[1] = tested on: SARS-CoV-2 pseudovirus; test: microbe, parasite or virus in culture; details: Severe acute respiratory syndrome-related coronavirus, A549, read-out: EC50, inhibition of SARS-CoV-2 pseudovirus infection
[2] = MTT cell viability assay in A549 cells; assay type: cell-based; details: human
[3] = MTT cell viability assay in Huh7 cells; assay type: cell-based; details: human
[4] = molecular target: CTSL protein prepared from human liver tissue (Homo sapiens, UniProt P07711); test: biochemical; details: for inhibition at 100 µM: read-out: inhibition against CTSL (inhibition efficiency)
[5] = tested on: SARS-CoV-2 pseudovirus; test: microbe, parasite or virus in culture; details: Severe acute respiratory syndrome-related coronavirus, Huh-7, read-out: EC50, inhibition of SARS-CoV-2 pseudovirus infection
[6] = tested on: SARS-CoV-2 pseudovirus

CTSL protein prepared from human liver tissue, sequence (P07711 114-288 limits assumed): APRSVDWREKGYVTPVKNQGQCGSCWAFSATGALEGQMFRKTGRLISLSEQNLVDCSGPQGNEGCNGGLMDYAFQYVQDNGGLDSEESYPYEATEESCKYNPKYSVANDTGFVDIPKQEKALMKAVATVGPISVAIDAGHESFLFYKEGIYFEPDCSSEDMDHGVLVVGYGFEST
CTSL protein prepared from human liver tissue, sequence (P07711 292-333 limits assumed): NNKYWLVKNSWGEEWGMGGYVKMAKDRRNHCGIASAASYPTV

Row | Structure (SMILES) | EC50 [1] | CC50 at 24 h [2] | CC50 at 24 h [3] | IC50 [4] | inhibition at 100 µM [4] | EC50 [5] | SI (selectivity index, ratio of CC50 and EC50) [6]
1 | CCCCC(C=O)NC(=O)C(CC(C)C)NC(=O)C(CC(C)C)NC(C)=O (stereo not drawn) [Mg-101] (Ac-Leu-Leu-[Nle]-aldehyde; configuration not given here) | 1.15 µM | 355 µM | 64.3 µM | < 0.008 µM | > 90% | 3.12 µM | 
2 | CC(C)C[C@@H](C=O)NC(=O)[C@H](CC(C)C)NC(=O)[C@H](CC(C)C)NC(=O)OCc1ccccc1 [Mg-132] (Cbz-Leu-Leu-Leu-aldehyde) | 0.159 µM | > 200 µM | 100 µM |  | > 90% | 0.212 µM | 
3 | CC(NC(=O)C(Cc1ccccc1)NC(=O)OCc1ccccc1)C(=O)CF (centres unmarked) [Z-FA-FMK] | 1.13 µM | > 400 µM | 328 µM | 0.0549 µM | > 90% | 0.701 µM | 
4 | CC1(C)CCC2=C(O1)c1ccccc1C(=O)C2=O [beta-lapachone] |  |  | 47.4 µM | > 100 µM |  | 5.09 µM | 9.31
5 | CCCC[C@@H](C=O)NC(=O)[C@H](CC(C)C)NC(=O)OCc1ccccc1 [calpeptin] | 34.8 µM | 595 µM | 116 µM |  | > 90% | 29.8 µM | 
6 | CCCCCCCCCC(=O)N[C@@H](Cc1c[nH]c2ccccc12)C(=O)N[C@H](CC(N)=O)C(=O)N[C@@H](CC(=O)O)C(=O)N[C@@H]1C(=O)NCC(=O)N[C@@H](CCCN)C(=O)N[C@@H](CC(=O)O)C(=O)N[C@H](C)C(=O)N[C@@H](CC(=O)O)C(=O)NCC(=O)N[C@H](CO)C(=O)N[C@@H]([C@H](C)CC(=O)O)C(=O)N[C@@H](CC(=O)c2ccccc2N)C(=O)O[C@@H]1C [daptomycin] |  | > 5000 µM | 3570 µM | 7.87 µM |  |  | 
7 | CC(=O)N[C@@H](CC(C)C)C(=O)N[C@@H](CC(C)C)C(=O)N[C@H](C=O)CCCNC(=N)N [leupeptin hemisulfate] | 4.26 µM | > 5000 µM | > 5000 µM | < 0.008 µM | > 90% | 39.3 µM | 
